{
  "source": "patent US10442803B2",
  "about": "“Tricyclic heterocycles as bet protein inhibitors” (Incyte Corporation, priority 2013, dated 2019)",
  "note": "Structures can show the parent of a compound that is named as a salt.",
  "data": [
    {"tested_on": "KMS.12.BM cells", "assay": "KMS.12.BM cell viability assay", "assay_type": "cell-based", "conditions": "72 h; KMS.12.BM human myeloma cells, 3 days, Cell Titer-GLO ATP quantitation; read-out: KMS cellular IC50", "method": "KMS.12.BM cell line (human myeloma) was purchased from JCRB (Osaka, Japan) and maintained in RPMI with 10% FBS culture medium. To measure the cytotoxic activity of the compounds through ATP quantitation, the KMS.12.BM cells are plated in the RPMI culture medium at 5000 cells/well/per 100 μL into a 96-well polystyrene clear black tissue culture plate (Greiner-bio-one through VWR, NJ), in the presence or absence of a concentration range of test compounds. After 3 days, […] Cell Titer-GLO Luminescent (Promega, Madison, Wis.) cell culture agent is added to each well for 10 minutes at room temperature to stabilize the luminescent signal. This determines the number of viable cells in culture based on quantitation of the ATP present, which signals the presence of metabolically active cells. Luminescence is measured with the Top Count 384 (Packard Bioscience through Perkin Elmer, Boston, Mass.).\nIC50 data for the Examples is presented in Table 4 as determined by Assay B1.", "units": {"IC50": "nM"}, "values": [
      {"smiles": "Cc1cc2c(ccc3nnc(C)n32)n1Cc1cccc(CN2CCN(C)CC2)c1", "note": "[Example 47, 1,7-dimethyl-6-{3-[(4-methylpiperazin-1-yl)methyl]benzyl}-6H-pyrrolo[2,3-e][1,2,4]triazolo[4,3-a]pyridine]", "IC50": "1000 to 10000"},
      {"smiles": "Cc1cc2c(cc(Nc3ncccn3)c3nnc(C)n32)n1Cc1ccccc1", "note": "[Example 201, 6-Benzyl-1,7-dimethyl-N-pyrimidin-2-yl-6H-pyrrolo[2,3-e][1,2,4]triazolo[4,3-a]pyridin-4-amine tris(trifluoroacetate) salt]", "IC50": "≤ 1000"},
      {"smiles": "Cc1nnc2ccc3c(cc(-c4ccn(CCC(=O)NC5COC5)n4)n3Cc3cccc(Cl)c3)n12", "note": "[Example 168, 3-{3-[6-(3-Chlorobenzyl)-1-methyl-6H-pyrrolo[2,3-e][1,2,4]triazolo[4,3-a]pyridin-7-yl]-1H-pyrazol-1-yl}-N-oxetan-3-ylpropanamide trifluoroacetate salt]", "IC50": "≤ 1000"},
      {"smiles": "CCn1ccc(-c2cc3c(ccc4nnc(C)n43)n2Cc2cc(Cl)cc(CN3CCC3)c2)n1", "note": "[Example 188, 6-(3-(Azetidin-1-ylmethyl)-5-chlorobenzyl)-7-(1-ethyl-1H-pyrazol-3-yl)-1-methyl-6H-pyrrolo[2,3-e][1,2,4]triazolo[4,3-a]pyridine tris(trifluoroacetate) salt]", "IC50": "≤ 1000"},
      {"smiles": "Cc1cc2c(ccc3nnc(C)n32)n1Cc1ccccn1", "note": "[Example 7, 1,7-dimethyl-6-(pyridin-2-ylmethyl)-6H-pyrrolo[2,3-e][1,2,4]triazolo[4,3-a]pyridine]", "IC50": "1000 to 10000"},
      {"smiles": "Cc1cc2c(ccc3nnc(C)n32)n1Cc1cccc(CN2CCOCC2)c1", "note": "[Example 38, 1,7-dimethyl-6-[3-(morpholin-4-ylmethyl)benzyl]-6H-pyrrolo[2,3-e][1,2,4]triazolo[4,3-a]pyridine]", "IC50": "≤ 1000"},
      {"smiles": "Cc1cc2c(cc(NCC3CN(C(=O)OC(C)(C)C)C3)c3nnc(C)n32)n1Cc1ccccc1", "note": "[Example 243, tert-Butyl 3-((6-benzyl-1,7-dimethyl-6H-pyrrolo[2,3-e][1,2,4]triazolo[4,3-a]pyridin-4-ylamino)methyl)azetidine-1-carboxylate]", "IC50": "1000 to 10000"},
      {"smiles": "Cc1cc2c(ccc3nnc(C)n32)n1Cc1ccc(CN(C)C)cc1", "note": "[Example 53, 1-{4-[(1,7-dimethyl-6H-pyrrolo[2,3-e][1,2,4]triazolo[4,3-a]pyridin-6-yl)methyl]phenyl}-N,N-dimethylmethanamine]", "IC50": "1000 to 10000"},
      {"smiles": "Cc1nnc2ccc3c(cc(-c4ccn(CCC#N)n4)n3Cc3cccc(CN4CCC4)c3)n12", "note": "[Example 183, 3-(3-{6-[3-(Azetidin-1-ylmethyl)benzyl]-1-methyl-6H-pyrrolo[2,3-e][1,2,4]triazolo[4,3-a]pyridin-7-yl}-1H-pyrazol-1-yl)propanenitrile bis(trifluoroacetate) salt]", "IC50": "≤ 1000"},
      {"smiles": "Cc1nnc2ccc3c(cc(-c4ncco4)n3Cc3cc(Cl)cc(CN4CC(C)(C)C4)c3)n12", "note": "[Example 196, 6-{3-Chloro-5-[(3,3-dimethylazetidin-1-yl)methyl]benzyl}-1-methyl-7-(1,3-oxazol-2-yl)-6H-pyrrolo[2,3-e][1,2,4]triazolo[4,3-a]pyridine bis(trifluoroacetate) salt]", "IC50": "≤ 1000"},
      {"smiles": "Cc1cc2c(cc(NC(N)=O)c3nnc(C)n32)n1Cc1cc(F)cc(F)c1", "note": "[Example 233, 1-(6-(3,5-Difluorobenzyl)-1,7-dimethyl-6H-pyrrolo[2,3-e][1,2,4]triazolo[4,3-a]pyridin-4-yl)urea]", "IC50": "≤ 1000"},
      {"smiles": "Cc1nnc2ccc3c(cc(-c4ccn(C)n4)n3Cc3cc(Cl)cc(CN4CCOCC4)c3)n12", "note": "[Example 192, 6-[3-Chloro-5-(morpholin-4-ylmethyl)benzyl]-1-methyl-7-(1-methyl-1H-pyrazol-3-yl)-6H-pyrrolo[2,3-e][1,2,4]triazolo[4,3-a]pyridine bis(trifluoroacetate) salt]", "IC50": "≤ 1000"},
      {"smiles": "Cc1cc2c(ccc3nnc(C)n32)n1Cc1ccccc1Cl", "note": "[Example 8, 6-(2-chlorobenzyl)-1,7-dimethyl-6H-pyrrolo[2,3-e][1,2,4]triazolo[4,3-a]pyridine]", "IC50": "≤ 1000"},
      {"smiles": "Cc1nnc2ccc3c(cc(-c4ccn(CCC(=O)NC5CN(C)C5)n4)n3Cc3cccc(Cl)c3)n12", "note": "[Example 171, 3-{3-[6-(3-Chlorobenzyl)-1-methyl-6H-pyrrolo[2,3-e][1,2,4]triazolo[4,3-a]pyridin-7-yl]-1H-pyrazol-1-yl}-N-(1-methylazetidin-3-yl)propanamide bis(trifluoroacetate) salt]", "IC50": "≤ 1000"},
      {"smiles": "CCNC(=O)c1cccc(Cn2c(C)cc3c2ccc2nnc(C)n23)c1", "note": "[Example 33, 3-[(1,7-dimethyl-6H-pyrrolo[2,3-e][1,2,4]triazolo[4,3-a]pyridin-6-yl)methyl]-N-ethylbenzamide trifluoroacetate salt]", "IC50": "≤ 1000"},
      {"smiles": "Cc1cc2c(cc(N[C@@H]3CCN(C(=O)OC(C)(C)C)C3)c3nnc(C)n32)n1Cc1ccccc1", "note": "[Example 149, tert-butyl (3R)-3-[(6-benzyl-1,7-dimethyl-6H-pyrrolo[2,3-e][1,2,4]triazolo[4,3-a]pyridin-4-yl)amino]pyrrolidine-1-carboxylate]", "IC50": "1000 to 10000"},
      {"smiles": "COCCNc1cc2c(cc(C)n2Cc2ccccc2)n2c(C)nnc12", "note": "[Example 209, 6-Benzyl-N-(2-methoxyethyl)-1,7-dimethyl-6H-pyrrolo[2,3-e][1,2,4]triazolo[4,3-a]pyridin-4-amine]", "IC50": "1000 to 10000"},
      {"smiles": "Cc1cc2c(cc(N[C@H]3CC[C@H](N(C)C)CC3)c3nnc(C)n32)n1Cc1ccccc1", "note": "[Example 220, trans-N′-(6-Benzyl-1,7-dimethyl-6H-pyrrolo[2,3-e][1,2,4]triazolo[4,3-a]pyridin-4-yl)-N,N-dimethylcyclohexane-1,4-diamine]", "IC50": "1000 to 10000"},
      {"smiles": "COC1CN(Cc2cccc(Cn3c(C)cc4c3ccc3nnc(C)n34)c2)C1", "note": "[Example 54, 6-{3-[(3-methoxyazetidin-1-yl)methyl]benzyl}-1,7-dimethyl-6H-pyrrolo[2,3-e][1,2,4]triazolo[4,3-a]pyridine]", "IC50": "≤ 1000"},
      {"smiles": "Cc1nnc2ccc3c(cc(-c4ccn(C(C)CC#N)n4)n3Cc3ccccc3)n12", "note": "(racemic) [Example 87, 3-[3-(6-benzyl-1-methyl-6H-pyrrolo[2,3-e][1,2,4]triazolo[4,3-a]pyridin-7-yl)-1H-pyrazol-1-yl]butanenitrile trifluoroacetate salt (racemate)]", "IC50": "≤ 1000"},
      {"smiles": "Cc1nnc2ccc3c(cc(-c4ccn[nH]4)n3Cc3ccccc3)n12", "note": "[Example 62, 6-benzyl-1-methyl-7-(1H-pyrazol-5-yl)-6H-pyrrolo[2,3-e][1,2,4]triazolo[4,3-a]pyridine]", "IC50": "≤ 1000"},
      {"smiles": "Cc1cc2c(cc(NC3CCN(C)CC3)c3nnc(C)n32)n1Cc1ccccn1", "note": "[Example 153, 1,7-dimethyl-N-(1-methylpiperidin-4-yl)-6-(pyridin-2-ylmethyl)-6H-pyrrolo[2,3-e][1,2,4]triazolo[4,3-a]pyridin-4-amine]", "IC50": "≤ 1000"},
      {"smiles": "Cc1cc2c(cc(NC(=O)C(C)C)c3nnc(C)n32)n1Cc1ccccc1", "note": "[Example 270, N-(6-Benzyl-1,7-dimethyl-6H-pyrrolo[2,3-e][1,2,4]triazolo[4,3-a]pyridin-4-yl)isobutyramide]", "IC50": "≤ 1000"},
      {"smiles": "Cc1cc2c(cc(N[C@H]3CC[C@H](N)CC3)c3nnc(C)n32)n1Cc1ccccc1", "note": "[Example 217, trans-N-(6-Benzyl-1,7-dimethyl-6H-pyrrolo[2,3-e][1,2,4]triazolo[4,3-a]pyridin-4-yl)cyclohexane-1,4-diamine]", "IC50": "≤ 1000"}
    ]}
  ]
}
